Experimental data published in ChEMBL document CHEMBL1148079, “Zarzissine, a new cytotoxic guanidine alkaloid from the Mediterranean sponge Anchinoe paupertas” (J Nat Prod, 1994).
In brackets after ≈: the same amount, converted by molar mass.

Legend:
Staphylococcus aureus = test: Antimicrobial activity against Staphylococcus aureus at 100 ug after 18 hrs by paper disk agar diffusion method; type: functional; conditions: read-out: IZ
Candida tropicalis = test: Antimicrobial activity against Candida tropicalis at 100 ug after 18 hrs by paper disk agar diffusion method; type: functional; conditions: read-out: IZ
KB = test: Cytotoxicity against human KB cells after 72 hrs by MTT assay; type: functional, cell-based
Candida albicans = test: Antimicrobial activity against Candida albicans at 100 ug after 18 hrs by paper disk agar diffusion method; type: functional; conditions: read-out: IZ
[1] = Cytotoxicity against human NSCLC-N6 cells after 72 hrs by MTT assay; type: functional, cell-based; conditions: NSCLC-N6, 72 h
P388 = test: Cytotoxicity against mouse P388 cells after 72 hrs by MTT assay; type: functional, cell-based; conditions: P388, 72 h

Row | Structure (SMILES) | zone of inhibition at 100 µg/disc (Staphylococcus aureus) [mm] | zone of inhibition at 100 µg/disc (Candida tropicalis) [mm] | IC50 (KB) [mg/L] | zone of inhibition at 100 µg/disc (Candida albicans) [mm] | IC50 [1] [mg/L] | IC50 (P388) [mg/L]
1 | Nc1nc2cnncc2[nH]1 | 12 | 11 | 5 (≈ 37 µM) | 10 | 10 (≈ 74 µM) | 12 (≈ 88.8 µM)
2 | O=Cc1ccc(O)cc1 [4-HYDROXYBENZALDEHYDE] | 8 | 7 |  | 7 |  | 
